Measurements: US20240116910A1, “Heterocycles as WIP1 Inhibitors” (PMV Pharmaceuticals, Inc., priority 2022, published 2024)

What follows are molecules tested against recombinant His-tag Wip1(2-420) protein (amino acids #2-420) (Homo sapiens (Human), UniProt O15297) (assay: Wip1(2-420) phosphatase enzyme FDP assay). Settings: fluorescein diphosphate (FDP) substrate, RT 2 hours, fluorescence Ex485/Em535; read-out: WIP1 (Truncated 2-420) FDP Assay: IC50.
Assay type: biochemical

Sequence of recombinant His-tag Wip1(2-420) protein (amino acids #2-420) (O15297 2-420): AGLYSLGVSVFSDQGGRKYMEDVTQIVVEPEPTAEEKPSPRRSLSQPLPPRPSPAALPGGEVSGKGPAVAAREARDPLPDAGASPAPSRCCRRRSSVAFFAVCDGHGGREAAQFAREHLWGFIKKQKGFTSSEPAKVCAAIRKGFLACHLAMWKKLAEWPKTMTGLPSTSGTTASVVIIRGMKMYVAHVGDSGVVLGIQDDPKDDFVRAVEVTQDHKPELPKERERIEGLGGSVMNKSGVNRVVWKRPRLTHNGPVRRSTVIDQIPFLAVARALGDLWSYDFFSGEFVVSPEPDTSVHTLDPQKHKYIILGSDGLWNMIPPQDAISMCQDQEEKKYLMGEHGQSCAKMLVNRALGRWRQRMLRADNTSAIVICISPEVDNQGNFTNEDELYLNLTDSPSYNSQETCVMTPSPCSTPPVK

How did the IC50 turn out when `COc1cc(NC(=O)[C@H](CC2CCCC2)NC(=O)c2ccc([C@H](C)Nc3cc(Cl)cnc3C)s2)ccn1` [Compound 156, (2S)-2-({5-[(1S)-1-[(5-chloro-2-methylpyridin-3-yl)amino]ethyl]thiophen-2-yl}formamido)-3-cyclopentyl-N-(2-methoxypyridin-4-yl)propanamide] was run?
The IC50 was 4 nM.

For `Cc1ncc(Cl)cc1N[C@@H](C)c1ccc(C(=O)N[C@@H](CC2CCCC2)C(=O)Nc2cnn(C3COC3)c2)s1` [Compound 144, (2S)-2-({5-[(1S)-1-[(5-chloro-2-methylpyridin-3-yl)amino]ethyl]thiophen-2-yl}formamido)-3-cyclopentyl-N-[1-(oxetan-3-yl)-1H-pyrazol-4-yl]propanamide], which IC50 is on record?
The IC50 was 6 nM.

Which IC50 does the source give for `Cc1ncc(Cl)cc1N[C@@H](C)c1ccc(C(=O)N[C@@H](CC2CCCC2)C(=O)NC2CCC2)s1` [Compound 87, (2S)-2-({5-[(1S)-1-[(5-chloro-2-methylpyridin-3-yl)amino]ethyl]thiophen-2-yl}formamido)-N-cyclobutyl-3-cyclopentylpropanamide] here?
Its IC50 is 5 nM.

How did the IC50 turn out when `Cc1ncc(Cl)cc1N[C@@H](C)c1ccc(C(=O)N[C@@H](CC2CCCC2)C(=O)NC23COC(C2)C3)s1` [Compound 113, (2S)-2-({5-[(1S)-1-[(5-chloro-2-methylpyridin-3-yl)amino]ethyl]thiophen-2-yl}formamido)-3-cyclopentyl-N-{2-oxabicyclo[2.1.1]hexan-4-yl}propanamide] was run?
Its IC50 is 11 nM.

`C[C@H](Nc1cc(Cl)cnc1C(C)(C)O)c1ccc(C(=O)N[C@@H](CC2CCCC2)C(=O)NC2CC2)s1` [Compound 194, (2S)-2-({5-[(1S)-1-{[5-chloro-2-(2-hydroxypropan-2-yl)pyridin-3-yl]amino}ethyl]thiophen-2-yl}formamido)-3-cyclopentyl-N-cyclopropylpropanamide] was tested. Which IC50 did it give?
Its IC50 is 6 nM.

`Cc1ncc(Cl)cc1N[C@H](Cn1cccn1)c1ccc(C(=O)N[C@@H](CC2CCCC2)C(=O)NC2CC2)s1` [Compound 165, (2S)-2-({5-[(1R)-1-[(5-chloro-2-methylpyridin-3-yl)amino]-2-(1H-pyrazol-1-yl)ethyl]thiophen-2-yl}formamido)-3-cyclopentyl-N-cyclopropylpropanamide] was tested. Which IC50 did it give?
The IC50 was 378 nM.

With `Cc1ncc(Cl)cc1N[C@@H](C)c1ccc(C(=O)N[C@@H](CC2CCCC2)C(=O)Nc2ccnc(Cl)c2)s1` [Compound 143, (2S)-2-({5-[(1S)-1-[(5-chloro-2-methylpyridin-3-yl)amino]ethyl]thiophen-2-yl}formamido)-N-(2-chloropyridin-4-yl)-3-cyclopentylpropanamide] as the molecule, how does the IC50 read?
Its IC50 is 5 nM.

For `Cc1ncc(Cl)cc1N[C@@H](C)c1ccc(C(=O)N[C@@H](CC2CCCC2)C(=O)NC(C)C)s1` [Compound 84, (2S)-2-({5-[(1S)-1-[(5-chloro-2-methylpyridin-3-yl)amino]ethyl]thiophen-2-yl}formamido)-3-cyclopentyl-N-(propan-2-yl)propanamide], which IC50 is on record?
The IC50 was 8 nM.

For `C[C@@H](Nc1cc(Cl)cnc1-c1cccc(Cl)c1)c1ccc(C(=O)N[C@@H](CC2CCCC2)C(=O)NC2CC2)s1` [Compound 230, (2S)-2-({5-[(1R)-1-{[5-chloro-2-(3-chlorophenyl)pyridin-3-yl]amino}ethyl]thiophen-2-yl}formamido)-3-cyclopentyl-N-cyclopropylpropanamide], which IC50 is on record?
The IC50 was 196 nM.

`Cc1ncc(Cl)cc1N[C@@H](C)c1ccc(C(=O)N[C@@H](CC2CCCC2)C(=O)Nc2ccnc(O)c2)s1` [Compound 139, (2S)-2-({5-[(1S)-1-[(5-chloro-2-methylpyridin-3-yl)amino]ethyl]thiophen-2-yl}formamido)-3-cyclopentyl-N-(2-hydroxypyridin-4-yl)propanamide] was tested. Which IC50 did it give?
Its IC50 is 5 nM.

How did the IC50 turn out when `COc1ncc(Cl)cc1N[C@H](C)c1ccc(C(=O)N[C@@H](CC2CCCC2)C(=O)NC2CC2)s1` [Compound 35, (2S)-2-({5-[(1R)-1-[(5-chloro-2-methoxypyridin-3-yl)amino]ethyl]thiophen-2-yl}formamido)-3-cyclopentyl-N-cyclopropylpropanamide] was run?
The IC50 was 301 nM.

With `COc1ccc(-c2ncc(Cl)cc2N[C@@H](C)c2ccc(C(=O)N[C@@H](CC3CCCC3)C(=O)NC3CC3)s2)cc1` [Compound 236, (2S)-2-({5-[(1S)-1-{[5-chloro-2-(4-methoxyphenyl)pyridin-3-yl]amino}ethyl]thiophen-2-yl}formamido)-3-cyclopentyl-N-cyclopropylpropanamide] as the molecule, how does the IC50 read?
The IC50 was 7 nM.

How did the IC50 turn out when `Cc1ncc(Cl)cc1N[C@@H](Cc1ccccc1)c1ccc(C(=O)N[C@@H](CC2CCCC2)C(=O)NC23CC(C#N)(C2)C3)s1` [Compound 214, (2S)-2-({5-[(1S)-1-[(5-chloro-2-methylpyridin-3-yl)amino]-2-phenylethyl]thiophen-2-yl}formamido)-N-{3-cyanobicyclo[1.1.1]pentan-1-yl}-3-cyclopentylpropanamide] was run?
Its IC50 is 20 nM.

`Cc1ncc(Cl)cc1N[C@@H](C)c1ccc(C(=O)N[C@@H](CC2CCCC2)C(=O)NC23CCC(CC2)CC3)s1` [Compound 257, (2S)-N-{bicyclo[2.2.2]octan-1-yl}-2-({5-[(1S)-1-[(5-chloro-2-methylpyridin-3-yl)amino]ethyl]thiophen-2-yl}formamido)-3-cyclopentylpropanamide] was tested. Which IC50 did it give?
Its IC50 is 8 nM.

For `COC[C@@H](Nc1cc(Cl)cnc1C)c1ccc(C(=O)N[C@@H](CC2CCCC2)C(=O)NC2CC2)s1` [Compound 158, (2S)-2-({5-[(1R)-1-[(5-chloro-2-methylpyridin-3-yl)amino]-2-methoxyethyl]thiophen-2-yl}formamido)-3-cyclopentyl-N-cyclopropylpropanamide], which IC50 is on record?
Its IC50 is 1000 nM.

For `Cc1ncc(Cl)cc1N[C@@H](C)c1ccc(C(=O)N[C@H](CC2CCCC2)C(=O)Nc2ccnc(O)c2)s1` [Compound 140, (2R)-2-({5-[(1S)-1-[(5-chloro-2-methylpyridin-3-yl)amino]ethyl]thiophen-2-yl}formamido)-3-cyclopentyl-N-(2-hydroxypyridin-4-yl)propanamide], which IC50 is on record?
Its IC50 is 402 nM.

For `Cc1ncc(Cl)cc1N[C@@H](C)c1ncc(C(=O)N[C@@H](CC2CCCC2)C(=O)NC2CC2)s1` [Compound 311, (2S)-2-({2-[(1S)-1-[(5-chloro-2-methylpyridin-3-yl)amino]ethyl]-1,3-thiazol-5-yl}formamido)-3-cyclopentyl-N-cyclopropylpropanamide], which IC50 is on record?
The IC50 was 1550 nM.

For `C[C@@H](c1ccc(C(=O)N[C@@H](CC2CCCC2)C(=O)NC2CC2)s1)N(C)c1cncc(Cl)c1` [Compound 89, (2S)-2-({5-[(1S)-1-[(5-chloropyridin-3-yl)(methyl)amino]ethyl]thiophen-2-yl}formamido)-3-cyclopentyl-N-cyclopropylpropanamide], which IC50 is on record?
Its IC50 is 102 nM.

With `Cc1ncc(Cl)cc1NC(C)(C)c1ccc(C(=O)N[C@@H](CC2CCCC2)C(=O)N[C@H]2C[C@H](F)C2)s1` [Compound 275, (2S)-2-[(5-{2-[(5-chloro-2-methylpyridin-3-yl)amino]propan-2-yl}thiophen-2-yl)formamido]-3-cyclopentyl-N-[(1r,3r)-3-fluorocyclobutyl]propanamide] as the molecule, how does the IC50 read?
The IC50 was 10 nM.

With `Cc1ncc(Cl)cc1N[C@@H](C)c1ccc(C(=O)N[C@@H](CC2CCCC2)C(=O)Nc2cnn(C)c2)s1` [Compound 98, (2S)-2-({5-[(1S)-1-[(5-chloro-2-methylpyridin-3-yl)amino]ethyl]thiophen-2-yl}formamido)-3-cyclopentyl-N-(1-methyl-1H-pyrazol-4-yl)propanamide] as the molecule, how does the IC50 read?
Its IC50 is 6 nM.

How did the IC50 turn out when `CC[C@@H](Nc1cc(Cl)cnc1C)c1ccc(C(=O)N[C@@H](CC2CCCC2)C(=O)NC23CC(C2)C3)s1` [Compound 67, (2S)-N-{bicyclo[1.1.1]pentan-1-yl}-2-({5-[(1R)-1-[(5-chloro-2-methylpyridin-3-yl)amino]propyl]thiophen-2-yl}formamido)-3-cyclopentylpropanamide] was run?
Its IC50 is 270 nM.

The molecules below were run against recombinant His-tag Wip1 full length protein (amino acids #1-605) (Homo sapiens (Human), UniProt O15297) (assay: Wip1 full length phosphatase enzyme FDP assay). Settings: fluorescein diphosphate (FDP) substrate, RT 2 hours, fluorescence Ex485/Em535.
Assay type: biochemical
Description: The Human Wip1 (2-420, aa 2-420) or Wip1 full length (aa 1-605) DNA sequence was codon optimized and synthesized by Genscript for insect cell expression. The open reading frame of Wip1(2-420) with a N-terminal-His6 affinity tag followed by a TEV cleavage site was subcloned sites into the pFastBac1 expression vector. The recombinant bacmid DNA was transfected in Sf9 insect cells for baculovirus production. After 72 hours infection, the Sf9 cells were harvested by centrifugation and resuspended in lysis buffer containing 50 mM Tris/HCl, pH 8.0, 500 mM NaCl, 20% glycerol, Benzonase 0.5% CHAPS and Roche cOmplete™ EDTA free protease inhibitors. Cells were disrupted with microfluidizer and the debris was removed by centrifugation at 185,000 g for 1 hour. The supernatant was subjected to HisTrap FF for affinity purification. Proteins were eluted with a linear gradient of 0-500 mM imidazole in HisTrap buffer containing 50 mM Tris/HCl, pH 8.0, 500 mM NaCl and 20% glycerol, 0.05% CHAPS. The eluted protein was dialyzed against dialysis buffer (20 mM MES, 100 mM NaCl, 20% glycerol, 0.5 mM TCEP, 0.05% CHAPS) followed purification via HiTrap SP HP column. The protein was eluted with a gradient of 100 mM-2 M NaCl in dialysis buffer. His6-[…] was finally concentrated and loaded onto a size-exclusion column (NiLoad 16/600 Superdex 200 pg, GE Healthcare) pre-equilibrated with 50 mM MOPS (pH 7.5), 200 mM NaCl, 20% glycerol, 1 mM TCEP, 0.05% CHAPS and 0.1 mM EGTA. The peak fractions containing purified Nis6-Wip1(2-420) were pooled and concentrated to 1.0 mg/mL and flash frozen at −80° C.
Wip1 Length and Wip1(2-420) Phosphatase Enzyme FDP Assays.
Test compounds (252 mM stock in DMSO) were diluted 3 folds in series in DMSO and 1.2 μl per well were added into 384-well polypropylene black plates (Nunc). Twelve μl per well of Assay Buffer (100 mM NaCl, 50 mM MOPS, pH 7.5, 0.8 mM CHAPS, 0.1 mM EGTA, 30 mM MgCl2, 0.3 mM TCEP, 0.2 mg/mL BSA) was added followed by […] per well of 50.4 nM recombinant His-tag Wip1 full length protein (amino acids #1-605) or recombinant His-tag Wip1(2-420) protein (amino acids #2-420) in Assay Buffer and the plate was incubated at RT (22° C.) for 5 min. Ten mM of fluorescein diphosphate (FDP) in DMSO was diluted to […] in Assay Buffer and […] per well was added to the plate and incubated at RT (22° C.) for 2 hours. […] per well of 64.1 mM EDTA in water were added to stop the enzyme reaction. The plate was centrifuged at 1,200 rpm (Eppendorf 5810R Plate centrifuge) for 1 minute and fluorescence intensity (Ex485/Em535) was measured on Perkin Elmer Victor Reader. EC50 values were calculated using either Prism (GraphPad) or ActivityBase software (IDBS), The IC50 results are provided in Table M.

Sequence of recombinant His-tag Wip1 full length protein (amino acids #1-605) (O15297 whole entry): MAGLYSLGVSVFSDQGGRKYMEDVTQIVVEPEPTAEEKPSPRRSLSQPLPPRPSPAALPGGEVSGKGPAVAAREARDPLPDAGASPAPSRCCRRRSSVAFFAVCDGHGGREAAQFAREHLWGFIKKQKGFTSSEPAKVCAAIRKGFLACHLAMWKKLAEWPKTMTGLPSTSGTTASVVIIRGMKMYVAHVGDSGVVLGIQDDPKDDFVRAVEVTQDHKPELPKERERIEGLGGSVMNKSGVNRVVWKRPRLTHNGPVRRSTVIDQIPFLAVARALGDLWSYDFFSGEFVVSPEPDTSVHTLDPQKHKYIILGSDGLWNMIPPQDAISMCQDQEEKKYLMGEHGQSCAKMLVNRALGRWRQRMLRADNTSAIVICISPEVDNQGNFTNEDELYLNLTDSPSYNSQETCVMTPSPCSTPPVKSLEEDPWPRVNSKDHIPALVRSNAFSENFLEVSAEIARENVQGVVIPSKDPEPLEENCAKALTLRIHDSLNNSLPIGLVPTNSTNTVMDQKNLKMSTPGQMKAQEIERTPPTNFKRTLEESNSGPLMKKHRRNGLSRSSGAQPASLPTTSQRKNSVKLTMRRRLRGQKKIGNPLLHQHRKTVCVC

Which IC50 does the source give for `COc1cc(NC(=O)[C@H](CC2CCCC2)NC(=O)c2ccc([C@H](C)Nc3cc(Cl)cnc3C)s2)ccn1` [Compound 156, (2S)-2-({5-[(1S)-1-[(5-chloro-2-methylpyridin-3-yl)amino]ethyl]thiophen-2-yl}formamido)-3-cyclopentyl-N-(2-methoxypyridin-4-yl)propanamide] here?
Its IC50 is 9 nM.
